Laboratory results from patent publication US7115258B2, “Vesicular monoamine transporter gene therapy in parkinson's disease” (priority 1998, dated 2006).

Tested on: dopamine release
Experiment: Release of stored dopamine from PFVMAA cells
Assay type: cell-based, rat
Conditions: 20 μM A23187 in physiological media, 20 minutes
Experimental: FIG. 3A and FIG. 3B. Release of stored dopamine from PFVMAA. (FIG. 3A) Time course of dopamine release from PFVMAA cells that were preincubated with 1 μM of L-DOPA for 2 hours to store dopamine (intracellular: open bar). After pre-incubation, the media was replaced with fresh media without L-DOPA and dopamine levels in the media (solid bar) were measured at one hour intervals. (FIG. 3B) The dopamine levels in the media (solid bar) and in the cell pellets (open bars) of PFVMAA cells in different calcium conditions. Cells were preincubated with 1 μM L-DOPA in the media for 3 hours, which were replaced with fresh physiological media (control), physiological media with 20 μM A23187 (Sigma), or by calcium-free media with 10 mM EGTA for 20 minutes of further incubation. Data represent the mean±SEM (n=3). n.d., nondetectable levels. n.s., no significant, * p<0.01, Student t-test analysis.
Catecholamine measurements were done in DMEM media (1 ml in each well) except for the experiments on Ca^++ effect which were done in physiological incubation medium consisting of 135 mM NaCl, 3 mM KCl, 2 mM CaCl2, 2 mM MgCl2, 10 mM glucose, 200 μM ascorbic acid, and 10 mM HEPES, pH 7.3.
To investigate the mechanism of dopamine release in the PFVMAA cells, intracellular calcium was manipulated by using calcium-free media and calcium ionophore. […]

Question: With CNc1ccc2oc(C[C@H]3O[C@@]4(CC[C@H]3C)O[C@H]([C@H](C)C(=O)c3ccc[nH]3)[C@H](C)C[C@H]4C)nc2c1C(=O)O [calcium ionophore, A23187] as the compound, how does the “effect on dopamine release from PFVMAA cells” value read?
Answer: Its value is “trend for increased release of dopamine”.
